# Source: US7208502B2, “Methods of treating conditions associated with an Edg-3 receptor” (Maniv Energy Capital, priority 2002, dated 2007)
# “Also recorded” adds a separate entry of the source.
# Experiments:
# [1] = molecular target: T1, human Edg-3 receptors (Homo sapiens, UniProt Q99500); test: Intracellular calcium (FLIPR) assay, S1P-stimulated, HTC cells expressing Edg-3; format: cell-based; details: HTC cells expressing human Edg-3 receptors; FIG. 1
# T1 construct: expressed in transfected cells; host or cells: HTC rat hepatoma cells
# Excerpt: Specific assays for Edg-3 receptor activity are known to those of skill in the art. For example, cells expressing Edg-3 receptors can be contacted with a membrane-permeant calcium sensitive dye such as Fluo-4 AM or a proprietary calcium dye loading kit (e.g., FLIPR Calcium Assay kit, Molecular Devices, Sunnyvale, Calif.). Intracellular calcium is capable of binding to the dye and emitting fluorescent radiation when illuminated at the appropriate wavelength. The cells can thus be illuminated an appropriate wavelength for the dye and any emitting light can be captured by a cooled CCD camera. Changes in fluorescence indicate changes in intracellular calcium resulting from the activation of an Edg-3 receptor. Such changes can be measured advantageously in whole cells in “real-time” (Berridge et al., Nature Reviews 2000, 1:11–21). […]
# […] such as Edg-3, couple to calcium effector pathways, and result in increases in intracellular calcium following receptor activation (An, 1998, J. Cell Biochem. Supp 30–31:147–157). This biological response lends itself to a very efficient, high-throughput screen using a Fluorescence Imaging Plate Reader (FLIPR; Molecular Devices, Sunnyvale, Calif.). The FLIPR system is a real-time, cell-based assay system with continuous fluorescence detection using a cooled CCD camera. […]
# [2] = molecular target: T2, Edg-2 (Homo sapiens, UniProt Q92633); test: Intracellular calcium assay, LPA-stimulated, HTC cells expressing Edg-2; format: cell-based; details: concentrations as high as 20 µM
# T2 construct: expressed in transfected cells; host or cells: HTC rat hepatoma cells
# [3] = molecular target: T3, Edg-7 (Homo sapiens, UniProt Q9UBY5); test: Intracellular calcium assay, LPA-stimulated, HTC cells expressing Edg-7; format: cell-based; details: concentrations as high as 20 µM
# T3 construct: expressed in transfected cells; host or cells: HTC rat hepatoma cells
# T3 sequence (Q9UBY5 1-353): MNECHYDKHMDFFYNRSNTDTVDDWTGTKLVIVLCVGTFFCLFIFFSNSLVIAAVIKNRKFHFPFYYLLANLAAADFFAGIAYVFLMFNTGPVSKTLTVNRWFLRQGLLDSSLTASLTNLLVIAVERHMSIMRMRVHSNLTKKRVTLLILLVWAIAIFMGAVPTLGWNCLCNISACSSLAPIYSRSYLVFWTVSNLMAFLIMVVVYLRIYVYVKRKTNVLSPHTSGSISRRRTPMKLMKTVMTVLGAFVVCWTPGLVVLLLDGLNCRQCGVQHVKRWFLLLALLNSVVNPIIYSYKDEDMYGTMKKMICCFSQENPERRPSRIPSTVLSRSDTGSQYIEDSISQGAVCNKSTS
# [4] = molecular target: T4, Edg-1 (Homo sapiens, UniProt P21453); test: Intracellular calcium assay, S1P-stimulated, HTC cells expressing Edg-1; format: cell-based; details: concentrations as high as 20 µM
# T4 construct: expressed in transfected cells; host or cells: HTC rat hepatoma cells
# [5] = molecular target: T5, Edg-6 (Homo sapiens, UniProt O95977); test: Intracellular calcium assay, S1P-stimulated, HTC cells expressing Edg-6; format: cell-based; details: concentrations as high as 20 µM
# T5 construct: expressed in transfected cells; host or cells: HTC rat hepatoma cells
# T5 sequence (O95977 1-384): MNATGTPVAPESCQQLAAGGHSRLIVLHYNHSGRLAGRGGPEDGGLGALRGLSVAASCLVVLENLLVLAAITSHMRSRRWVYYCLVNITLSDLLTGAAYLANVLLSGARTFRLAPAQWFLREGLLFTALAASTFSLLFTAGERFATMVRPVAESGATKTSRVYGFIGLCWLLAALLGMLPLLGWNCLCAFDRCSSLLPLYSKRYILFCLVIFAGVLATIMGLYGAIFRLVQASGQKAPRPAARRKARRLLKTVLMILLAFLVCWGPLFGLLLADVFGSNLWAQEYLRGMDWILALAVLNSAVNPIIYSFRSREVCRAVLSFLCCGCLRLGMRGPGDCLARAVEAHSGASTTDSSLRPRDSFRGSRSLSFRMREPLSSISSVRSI
# [6] = molecular target: T6, Edg-8 (Homo sapiens, UniProt Q9H228); test: Intracellular calcium assay, S1P-stimulated, HTC cells expressing Edg-8; format: cell-based; details: concentrations as high as 20 µM
# T6 construct: expressed in transfected cells; host or cells: HTC rat hepatoma cells
# [7] = molecular target: T7, Histamine H1, Central (Cavia porcellus, UniProt P31389); test: Radioligand binding assay, 3H Pyrilamine; set-up: species or system Guinea pig; details: 10 μM; significance criteria ≧50% of max stimulation or inhibition
# T7 construct: from tissue; host or cells: guinea pig cerebellum
# Description: In order to test the selectivity of compounds, various enzyme assays as well as radioligand binding assays were performed using numerous non-Edg receptor targets as listed below.
# A radioligand binding assay was performed using adrenergic α1 according to the method of Greengrass and Bremner 1979, Eur. J. Pharmacol. 55:323–326. A radioligand binding assay was performed using adrenergic α2 according to the method of Boyajian and Leslie, 1987, J. Pharmacol. Exp. Ther. 241:1092–1098. A radioligand binding assay was performed using adrenergic β according to the method of Feve et al., 1994, Proc. Natl. Acad. Sci. USA 91:5677–5681. A radioligand binding assay was performed using angiotensin AT2 according to the method of Whitebread et al., 1991, Biochem. Biophys. Res. Comm. 181:1365–1371. A radioligand binding assay was performed using calcium channel Type L, dihydropyridine according to the method of Ehlert et al., 1982, Life Sci. 30:2191–2202. A radioligand binding assay was performed using dopamine D2L according to the method of Bunzo et al., 1988, Nature 336:783–787. A radioligand binding assay was performed using endothelin ETA according to the method of Mihara et al., 1994, J. Phrmacol. Exp Ther. 268:1122–1127. A radioligand binding assay was performed using histamine H1 Central according to the method of Hill et al., 1978, J. Neurochem. 31:997–1004. […]
# Quantitation Method: Radioligand Binding […]
# T1 sequence (Q99500 whole entry): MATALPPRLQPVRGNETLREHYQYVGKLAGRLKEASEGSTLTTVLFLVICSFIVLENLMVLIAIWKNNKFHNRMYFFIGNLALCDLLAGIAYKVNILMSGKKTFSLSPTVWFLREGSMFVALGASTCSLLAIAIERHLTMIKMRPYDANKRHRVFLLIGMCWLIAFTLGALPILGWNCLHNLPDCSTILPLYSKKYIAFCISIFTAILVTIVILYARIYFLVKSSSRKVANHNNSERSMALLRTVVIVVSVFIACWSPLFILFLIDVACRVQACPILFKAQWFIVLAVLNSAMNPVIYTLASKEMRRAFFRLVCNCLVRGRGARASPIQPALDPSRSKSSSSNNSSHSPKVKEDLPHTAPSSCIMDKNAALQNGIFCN
# T6 sequence (Q9H228 whole entry): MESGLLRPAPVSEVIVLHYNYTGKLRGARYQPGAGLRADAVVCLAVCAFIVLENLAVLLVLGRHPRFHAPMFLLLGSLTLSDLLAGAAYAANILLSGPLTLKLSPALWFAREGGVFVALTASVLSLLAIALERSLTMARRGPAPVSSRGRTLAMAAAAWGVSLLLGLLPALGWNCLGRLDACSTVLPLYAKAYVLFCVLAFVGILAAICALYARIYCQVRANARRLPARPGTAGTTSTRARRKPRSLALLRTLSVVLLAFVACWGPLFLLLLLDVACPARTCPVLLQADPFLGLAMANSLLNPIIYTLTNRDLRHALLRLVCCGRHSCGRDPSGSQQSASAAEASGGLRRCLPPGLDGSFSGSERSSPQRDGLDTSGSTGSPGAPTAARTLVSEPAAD
# T4 sequence (P21453 whole entry): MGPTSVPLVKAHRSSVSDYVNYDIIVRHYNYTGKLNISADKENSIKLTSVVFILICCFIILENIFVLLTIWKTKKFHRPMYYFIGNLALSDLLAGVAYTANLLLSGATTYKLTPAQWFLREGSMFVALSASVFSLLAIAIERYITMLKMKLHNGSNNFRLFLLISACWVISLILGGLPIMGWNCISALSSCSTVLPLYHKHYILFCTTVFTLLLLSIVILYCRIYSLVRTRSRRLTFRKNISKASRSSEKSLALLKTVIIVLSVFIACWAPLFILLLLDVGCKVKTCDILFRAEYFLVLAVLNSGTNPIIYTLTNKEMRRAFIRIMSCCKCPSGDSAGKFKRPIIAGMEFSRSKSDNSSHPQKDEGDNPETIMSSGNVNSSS
# T7 sequence (P31389 whole entry): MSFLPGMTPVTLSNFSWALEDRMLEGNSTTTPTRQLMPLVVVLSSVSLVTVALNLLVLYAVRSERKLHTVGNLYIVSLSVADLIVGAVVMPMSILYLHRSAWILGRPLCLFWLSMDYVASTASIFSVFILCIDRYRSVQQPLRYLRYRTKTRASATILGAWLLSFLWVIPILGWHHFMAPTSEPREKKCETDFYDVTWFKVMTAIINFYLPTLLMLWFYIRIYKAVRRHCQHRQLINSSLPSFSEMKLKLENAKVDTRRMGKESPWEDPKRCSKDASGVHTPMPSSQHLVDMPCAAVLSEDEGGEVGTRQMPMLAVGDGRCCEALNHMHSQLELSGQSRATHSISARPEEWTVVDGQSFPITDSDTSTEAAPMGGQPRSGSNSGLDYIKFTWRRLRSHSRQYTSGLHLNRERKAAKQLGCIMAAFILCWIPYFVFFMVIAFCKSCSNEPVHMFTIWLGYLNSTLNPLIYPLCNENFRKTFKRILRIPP
# T2 sequence (Q92633 whole entry): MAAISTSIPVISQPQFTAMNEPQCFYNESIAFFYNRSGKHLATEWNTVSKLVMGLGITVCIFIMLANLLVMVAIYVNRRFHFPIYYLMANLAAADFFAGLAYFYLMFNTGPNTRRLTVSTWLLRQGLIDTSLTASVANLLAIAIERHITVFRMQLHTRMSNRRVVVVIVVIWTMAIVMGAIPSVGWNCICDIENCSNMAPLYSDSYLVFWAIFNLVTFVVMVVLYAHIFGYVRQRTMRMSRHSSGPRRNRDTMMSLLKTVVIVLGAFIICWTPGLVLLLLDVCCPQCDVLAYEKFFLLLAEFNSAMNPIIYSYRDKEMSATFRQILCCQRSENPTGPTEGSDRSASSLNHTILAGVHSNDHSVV
smiles,measurement,setting,value
"Cc1c(-c2ccccc2)nc2ccccc2c1C(=O)NCc1ccc(F)cc1 [Compound 101, 3-methyl-2-phenyl-quinoline-4-carboxylic acid 4-fluoro-benzylamide]",inhibition of Edg-3 stimulated S1P responses (Edg-3 receptors),[1],demonstrate inhibition; also recorded: specifically inhibited
same,"inhibition of LPA-stimulated calcium increases, Edg-2",[2],did not inhibit
same,"inhibition of LPA-stimulated calcium increases, Edg-7",[3],did not inhibit
same,"inhibition of S1P-stimulated calcium increases, Edg-1",[4],did not inhibit
same,"inhibition of S1P-stimulated calcium increases, Edg-6",[5],did not inhibit
same,"inhibition of S1P-stimulated calcium increases, Edg-8",[6],did not inhibit
same,"activity in standard binding assay, Histamine H1, Central",[7],no activity
